In assay [1] the test system is B. thailandensis ATCC 700388. As to the kind of experiment: microbe, parasite or virus in culture. Format: cell-based. Conditions: Burkholderia thailandensis, ATCC700388, read-out: Minimum inhibitory concentration (MIC), B. thailandensis ATCC 700388.
The subject of another assay is A. baumannii CDC-0045. The assay is described as follows: microbe, parasite or virus in culture. Type of assay: cell-based. Conditions: Acinetobacter baumannii.
In assay [2] the target is T1, PBP3 from Pseudomonas aeruginosa (PAO1) (Pseudomonas aeruginosa, UniProt G3XD46).
T1 construct: made in house
The assay is described as follows: Bocillin-FL fluorescence polarization competition binding, P. aeruginosa PBP3. The conditions noted are these: Binding affinity to P. aeruginosa PBP3; fluorescence polarization competition binding assay using Bocillin-FL; read-out: P. aeruginosa PBP3 Potency. In short, it runs like this:
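Purified PBP was preincubated with inhibitor (E. coli PBP3 1.5 μM, 30 min; P. aeruginosa PBP3 0.75 μM, A. baumannii PBP3 0.2 μM and PBP1a 1 μM, 15 min), then Bocillin-FL (0.1 μM; 0.05 μM for PBP1a) added and FP read up to 60 min. EC50 = 50% loss of bound probe.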

In assay [3] the test system is P. aeruginosa (ΔmexAB-oprM). The assay is described as follows: Broth microdilution MIC in iron-depleted CAMHB (IDM). Type of assay: cell-based. The conditions noted are these: Pseudomonas aeruginosa; iron-depleted CAMHB (IDM); […]; read-out: Minimum inhibitory concentration, P. aeruginosa ΔmexAB-oprM.
Another assay deals with T2, A. baumannii PBP1a (Acinetobacter baumannii, UniProt A0ABX6CK30).
T2 sequence (A0ABX6CK30 1-851): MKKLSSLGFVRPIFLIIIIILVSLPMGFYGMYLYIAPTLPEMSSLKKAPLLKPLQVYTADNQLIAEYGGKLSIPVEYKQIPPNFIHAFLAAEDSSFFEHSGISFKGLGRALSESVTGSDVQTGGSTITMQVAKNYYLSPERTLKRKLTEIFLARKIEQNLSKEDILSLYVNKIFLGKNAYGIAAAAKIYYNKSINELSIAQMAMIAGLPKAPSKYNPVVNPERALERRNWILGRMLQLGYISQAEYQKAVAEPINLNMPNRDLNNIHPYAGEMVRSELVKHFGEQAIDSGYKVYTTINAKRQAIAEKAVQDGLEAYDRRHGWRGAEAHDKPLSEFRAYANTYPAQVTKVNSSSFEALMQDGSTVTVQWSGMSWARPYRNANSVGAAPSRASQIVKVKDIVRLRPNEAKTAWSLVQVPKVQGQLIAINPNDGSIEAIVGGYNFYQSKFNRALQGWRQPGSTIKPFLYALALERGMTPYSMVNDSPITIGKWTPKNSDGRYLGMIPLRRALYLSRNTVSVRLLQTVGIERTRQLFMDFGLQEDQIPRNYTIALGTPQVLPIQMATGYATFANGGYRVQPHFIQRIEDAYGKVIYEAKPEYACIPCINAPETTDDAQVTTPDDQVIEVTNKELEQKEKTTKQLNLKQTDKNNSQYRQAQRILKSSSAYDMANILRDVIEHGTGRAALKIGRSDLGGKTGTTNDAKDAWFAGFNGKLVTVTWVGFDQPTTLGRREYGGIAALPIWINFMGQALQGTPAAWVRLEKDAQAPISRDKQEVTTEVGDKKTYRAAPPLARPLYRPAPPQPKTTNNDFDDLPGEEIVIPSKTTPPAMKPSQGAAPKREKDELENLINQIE
The assay is described as follows: Bocillin-FL competition binding via gel filtration, A. baumannii PBP1a. In outline: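 Competitive equilibrium binding; reporter Bocillin-FL. PBP + inhibitor (titration) pre-incubated → Bocillin-FL, 15 min → gel filtration → fluorescence. EC50 from Hill fit of fraction bound vs [inhibitor].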

The mark [4] stands for this setting: CDC0045, read-out: Minimum inhibitory concentration (MIC), A. baumannii CDC-0045.
Setting [5] is: competition binding assay using Bocillin-FL via gel filtration, read-out: A. baumannii PBP1a Potency.
The mark [6] stands for this setting: CDC0045, read-out: MIC, A. baumannii CDC-0045.

The structures appear in SMILES notation. Like-named read-outs stand apart in the source and are kept apart here. Bounds are passed on as bounds.

T1 sequence (G3XD46 whole entry): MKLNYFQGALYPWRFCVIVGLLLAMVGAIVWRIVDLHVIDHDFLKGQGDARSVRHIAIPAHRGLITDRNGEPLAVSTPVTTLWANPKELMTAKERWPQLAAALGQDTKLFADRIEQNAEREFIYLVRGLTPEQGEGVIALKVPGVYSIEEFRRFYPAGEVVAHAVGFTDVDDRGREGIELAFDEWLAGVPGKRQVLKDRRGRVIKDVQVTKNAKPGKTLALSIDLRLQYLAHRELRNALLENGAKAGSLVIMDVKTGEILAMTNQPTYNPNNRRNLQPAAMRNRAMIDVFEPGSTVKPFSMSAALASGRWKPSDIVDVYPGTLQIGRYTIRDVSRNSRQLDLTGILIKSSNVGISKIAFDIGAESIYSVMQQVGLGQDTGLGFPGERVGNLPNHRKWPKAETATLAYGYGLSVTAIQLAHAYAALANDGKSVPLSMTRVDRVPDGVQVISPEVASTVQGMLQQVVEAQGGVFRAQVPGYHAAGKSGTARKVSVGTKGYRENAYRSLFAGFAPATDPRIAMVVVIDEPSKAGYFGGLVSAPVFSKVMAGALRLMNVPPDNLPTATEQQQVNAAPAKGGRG

Take `O=C(O)c1c(F)ccc2c1OB(O)[C@@H](NC(=O)[C@H](NC(=O)N1CCN(C3CCN(C(=O)Nc4ccc(O)c(O)c4Cl)CC3)C1=O)c1ccc(P(=O)(O)O)cc1)C2` (single isomer, unassigned) [Example 497]: the MIC (in assay [1]; in the assay with A. baumannii CDC-0045 (setting [4]); in assay [3]) was < 1 µg/mL each time. Also, the IC50 in assay [2] was < 10 µM. The EC50 at A. baumannii PBP1a (setting [5]) is < 10 µM.

For `O=C(O)c1c(F)ccc2c1OB(O)[C@@H](NC(=O)[C@H](NC(=O)N1CCN(C3CCN(C(=O)Nc4cc(F)c(O)c(O)c4Cl)CC3)C1=O)c1ccc(P(=O)(O)O)cc1)C2` (single isomer, unassigned) [Example 500], the MIC (in assay [1]; in the assay on A. baumannii CDC-0045 (setting [4]); in assay [3]) was < 1 µg/mL each time. In addition, in assay [2], the IC50 is < 10 µM. Besides, the EC50 on A. baumannii PBP1a (setting [5]) is < 10 µM.

Regarding `O=C(O)c1cccc2c1OB(O)[C@@H](NC(=O)C(NC(=O)N1CCN(Cc3cc(F)c(O)c(O)c3Cl)C(=O)C1=O)c1ccc(P(=O)(O)O)cc1)C2` (stereo partly drawn) [Example 164, (3R)-3-(2-(4-(2-chloro-5-fluoro-3,4-dihydroxybenzyl)-2,3-dioxopiperazine-1-carboxamido)-2-(4-phosphonophenyl)acetamido)-2-hydroxy-3,4-dihydro-2H-benzo[e][1,2]oxaborinine-8-carboxylic acid], the MIC (in assay [1]; in the assay on A. baumannii CDC-0045 (setting [6]); in assay [3]) was < 1 µg/mL in each case. Also, in assay [2], the IC50 was < 10 µM. For the same molecule, the EC50 at A. baumannii PBP1a (setting [5]) is < 10 µM.

For `O=C(O)c1c(F)ccc2c1OB(O)[C@@H](NC(=O)[C@H](NC(=O)N1CCN(Cc3ccc(O)c(O)c3Cl)C(=O)C1=O)c1ccc(P(=O)(O)O)c(F)c1F)C2` [Example 166, (R)-3-((R)-2-(4-(2-chloro-3,4-dihydroxybenzyl)-2,3-dioxopiperazine-1-carboxamido)-2-(2,3-difluoro-4-phosphonophenyl)acetamido)-7-fluoro-2-hydroxy-3,4-dihydro-2H-benzo[e][1,2]oxaborinine-8-carboxylic acid], the MIC (in assay [1]; in the assay with A. baumannii CDC-0045 (setting [6]); in assay [3]) was < 1 µg/mL throughout. In assay [2], the IC50 was < 10 µM. For the same molecule, the EC50 at A. baumannii PBP1a (setting [5]) fell in the range of 10 to 50 µM.

On to `O=C(NCCS(=O)(=O)N1CCN(C(=O)N[C@H](C(=O)N[C@H]2Cc3ccc(F)c(C(=O)O)c3OB2O)c2ccc(P(=O)(O)O)cc2)C1=O)c1ccc(O)c(O)c1Cl` [Example 167, (R)-3-((S)-2-(3-((2-(2-chloro-3,4-dihydroxybenzamido)ethyl)sulfonyl)-2-oxoimidazolidine-1-carboxamido)-2-(4-phosphonophenyl)acetamido)-7-fluoro-2-hydroxy-3,4-dihydro-2H-benzo[e][1,2]oxaborinine-8-carboxylic acid], for which the MIC (in assay [1]; in the assay with A. baumannii CDC-0045 (setting [6]); in assay [3]) was > 128 µg/mL in each case. Also, the IC50 in assay [2] was 50 to 250 µM. In addition, the EC50 at A. baumannii PBP1a (setting [5]) is 50 to 250 µM.

On to `O=C(O)c1c(F)ccc2c1OB(O)[C@@H](NC(=O)[C@H](NC(=O)N1CCN(C3CCN(C(=O)c4ccc(F)c(O)c4Cl)CC3)C1=O)c1cc(F)c(O)c(O)c1Cl)C2` [Example 438, (R)-3-((R)-2-(3-(1-(2-chloro-4-fluoro-3-hydroxybenzoyl)piperidin-4-yl)-2-oxoimidazolidine-1-carboxamido)-2-(2-chloro-5-fluoro-3,4-dihydroxyphenyl)acetamido)-7-fluoro-2-hydroxy-3,4-dihydro-2H-benzo[e][1,2]oxaborinine-8-carboxylic acid], for which the MIC (in assay [1]; with A. baumannii CDC-0045 (setting [6]); in assay [3]) was < 1 µg/mL throughout. Moreover, in assay [2], the IC50 is < 10 µM. The EC50 at A. baumannii PBP1a (setting [5]) was < 10 µM.

Consider `O=C(O)c1c(F)ccc2c1OB(O)[C@@H](NC(=O)[C@H](NC(=O)N1CCN(C3CCN(C(=O)Nc4cccc(O)c4)CC3)C1=O)c1cc(F)c(O)c(O)c1Cl)C2` [Example 445, (R)-3-((R)-2-(2-chloro-5-fluoro-3,4-dihydroxyphenyl)-2-(3-(1-((3-hydroxyphenyl)carbamoyl)piperidin-4-yl)-2-oxoimidazolidine-1-carboxamido)acetamido)-7-fluoro-2-hydroxy-3,4-dihydro-2H-benzo[e][1,2]oxaborinine-8-carboxylic acid], for which the MIC (in assay [1]; in the assay with A. baumannii CDC-0045 (setting [6]); in assay [3]) was < 1 µg/mL in each case. Also, the IC50 in assay [2] was < 10 µM. In addition, the EC50 at A. baumannii PBP1a (setting [5]) is < 10 µM.

Take `O=C(O)c1c(F)ccc2c1OB(O)[C@@H](NC(=O)[C@H](NC(=O)N1CCN(C3CCN(C(=O)Nc4cccc(O)c4Cl)CC3)C1=O)c1cc(F)c(O)c(O)c1Cl)C2` [Example 447, (R)-3-((R)-2-(3-(1-((2-chloro-3-hydroxyphenyl)carbamoyl)piperidin-4-yl)-2-oxoimidazolidine-1-carboxamido)-2-(2-chloro-5-fluoro-3,4-dihydroxyphenyl)acetamido)-7-fluoro-2-hydroxy-3,4-dihydro-2H-benzo[e][1,2]oxaborinine-8-carboxylic acid]: the MIC (in assay [1]; in the assay on A. baumannii CDC-0045 (setting [6]); in assay [3]) was < 1 µg/mL throughout. Moreover, the IC50 in assay [2] was < 10 µM. Further, the EC50 at A. baumannii PBP1a (setting [5]) was < 10 µM.

In the case of `O=C(O)c1c(F)ccc2c1OB(O)[C@@H](NC(=O)[C@H](NC(=O)N1CCN(C3CCN(C(=O)Nc4cc(O)cc(O)c4)CC3)C1=O)c1cc(F)c(O)c(O)c1Cl)C2` [Example 456, (R)-3-((R)-2-(2-chloro-5-fluoro-3,4-dihydroxyphenyl)-2-(3-(1-((3,5-dihydroxyphenyl)carbamoyl)piperidin-4-yl)-2-oxoimidazolidine-1-carboxamido)acetamido)-7-fluoro-2-hydroxy-3,4-dihydro-2H-benzo[e][1,2]oxaborinine-8-carboxylic acid], the MIC (in assay [1]; in the assay with A. baumannii CDC-0045 (setting [6]); in assay [3]) was < 1 µg/mL throughout. The IC50 in assay [2] is < 10 µM. Further, the EC50 on A. baumannii PBP1a (setting [5]) is < 10 µM.

Turning to `O=C(O)c1c(F)ccc2c1OB(O)[C@@H](NC(=O)[C@H](NC(=O)N1CCN(C3CCN(C(=O)c4cccnc4)CC3)C1=O)c1cc(F)c(O)c(O)c1Cl)C2` [Example 460, (R)-3-((R)-2-(2-chloro-5-fluoro-3,4-dihydroxyphenyl)-2-(3-(1-nicotinoylpiperidin-4-yl)-2-oxoimidazolidine-1-carboxamido)acetamido)-7-fluoro-2-hydroxy-3,4-dihydro-2H-benzo[e][1,2]oxaborinine-8-carboxylic acid], the MIC (in assay [1]; with A. baumannii CDC-0045 (setting [6]); in assay [3]) was < 1 µg/mL in each case. For the same molecule, in assay [2], the IC50 is < 10 µM. The molecule further came in with an EC50 at A. baumannii PBP1a of 10 to 50 µM.

As to `O=C(O)c1c(F)ccc2c1OB(O)[C@@H](NC(=O)[C@H](NC(=O)N1CCN(C3CCN(C(=O)c4ccncc4)CC3)C1=O)c1cc(F)c(O)c(O)c1Cl)C2` [Example 461, (R)-3-((R)-2-(2-chloro-5-fluoro-3,4-dihydroxyphenyl)-2-(3-(1-isonicotinoylpiperidin-4-yl)-2-oxoimidazolidine-1-carboxamido)acetamido)-7-fluoro-2-hydroxy-3,4-dihydro-2H-benzo[e][1,2]oxaborinine-8-carboxylic acid], the MIC (in assay [1]; with A. baumannii CDC-0045 (setting [6]); in assay [3]) was < 1 µg/mL throughout. For the same molecule, in assay [2], the IC50 was < 10 µM. Besides, the EC50 on A. baumannii PBP1a (setting [5]) was in the range of 10 to 50 µM.

These data come from patent publication US20240270762A1, “PENICILLIN-BINDING PROTEIN INHIBITORS” (priority 2021, published 2024).
